Experimental findings from patent publication EP4752149A1, “OXYGEN-CONTAINING FUSED TRICYCLIC DERIVATIVE, AND PREPARATION METHOD THEREFOR AND USE THEREOF” (Tuojie Biotech (Shanghai) Co., Ltd., priority 2023, dated 2025) are described below.

For assay [1], the system named is Human prostate cancer cells (22RV1). In words: Inhibitory activity against human prostate cancer cells (22RV1), CTG cell viability. In kind it is cell-based. The note with it: Homo sapiens, 120 h, 5 days with compound. The procedure: Human prostate cancer cells (22RV1) were cultured using an RPMI 1640 culture medium containing 10% FBS in a cell incubator (37 °C, 5% CO2). On day one, the cells were plated in a 384-well plate at a cell concentration of 500 cells/well and cultured overnight in an incubator. On day two, the cells were treated with compounds. The highest compound concentration was 10 µM and was diluted 3-fold to obtain 9 concentrations, and the final concentration of DMSO was 0.2%. After the cells were cultured in the incubator for another 5 days, the cell viability was tested using a CTG Cell Viability Detection Reagent; the testing method was consistent with the method provided by the kit. Data were processed using XLFit, and IC50 was calculated. [formula] X: the logarithm of the compound concentration; Y: % inhibition. Table 12. The IC50 (nM) of a compound of the present disclosure against 22RV1

The next assay concerns the target T1, CDK4/CycD1 (Homo sapiens, UniProt P11802).
T1 construct: purchased Invitrogen PR8064A
In words: Activity against cyclin-dependent kinase CDK4/CycD1 (Caliper EZ Reader mobility shift). In kind it is biochemical. To be noted: 1 h at room temperature; highest concentration 1 µM. The procedure: (§1) The test compounds (the highest concentration was 1 µM) were added using Echo 650 and serially diluted 3-fold to obtain a total of 9 concentration points. The assay plate was sealed and centrifuged at 1000 g for 1 min. 2.5× enzymes were prepared in a 1× kinase buffer (50 mM HEPES, pH 7.5, 0.0015% Brij-35, […]), and the 2.5× enzymes (10 µL) were added to the 384-well assay plate. The plate was centrifuged at 1000 g for 30 s and left to stand at room temperature for 10 min. 2.5× substrate and ATP mixtures were prepared in the 1× kinase buffer, and the 2.5× substrate and ATP mixtures (10 µL) were added to start reactions. The assay plate was centrifuged at 1000 g for 30 s, sealed, and incubated at room temperature for 1 h. 25 µL of a stop solution reagent (100 mM HEPES, pH 7.5, 0.015% Brij-35, 0.2% Coating Reagent #3, 50 mM EDTA) was added.
(§2) Conversion rate data were read on a CaliperEZ Reader. The conversion rate data were copied from the CaliperEZ Reader. The conversion rates were converted to inhibition rate data. Inhibition% = (max−conversion)/(max−min) × 100, [formula] where "min" is the reading of a control sample well to which no enzyme was added for reaction; "max" is the reading of a control well to which DMSO was added.
(§3) IC50 values were obtained by fitting using XLFit excel add-in version 5.4.0.8. Y = Bottom + (Top−Bottom)/(1+((IC50/X))^(∧)HillSlope). [formula] Table 6. […]

The target of a further assay is T2, CDK2/CycE1 (Homo sapiens, UniProt P24941).
T2 construct: purchased Carna 04-165
In words: Activity against cyclin-dependent kinase CDK2/CycE1 (Caliper EZ Reader mobility shift). In kind it is biochemical. To be noted: 1 h at room temperature; highest concentration 1 µM. The procedure:
as §1, §2, §3

T1 sequence (P11802 whole entry): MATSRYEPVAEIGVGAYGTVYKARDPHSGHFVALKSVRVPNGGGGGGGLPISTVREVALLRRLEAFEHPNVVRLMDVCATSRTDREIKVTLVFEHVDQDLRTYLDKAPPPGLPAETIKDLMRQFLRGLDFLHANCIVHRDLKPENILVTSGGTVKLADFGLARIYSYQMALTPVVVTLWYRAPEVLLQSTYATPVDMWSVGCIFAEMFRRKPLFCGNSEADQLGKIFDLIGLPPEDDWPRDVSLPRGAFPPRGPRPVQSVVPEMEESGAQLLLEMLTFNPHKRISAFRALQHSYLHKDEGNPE
T1 sequence (P24385 whole entry partner): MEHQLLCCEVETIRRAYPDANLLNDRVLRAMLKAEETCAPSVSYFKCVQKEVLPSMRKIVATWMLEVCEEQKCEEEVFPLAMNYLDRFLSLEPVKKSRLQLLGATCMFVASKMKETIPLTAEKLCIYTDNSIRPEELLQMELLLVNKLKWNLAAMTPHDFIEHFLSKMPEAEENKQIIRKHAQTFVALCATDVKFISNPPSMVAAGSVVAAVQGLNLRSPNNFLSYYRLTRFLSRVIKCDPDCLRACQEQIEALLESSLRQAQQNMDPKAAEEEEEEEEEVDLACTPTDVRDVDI

Regarding `C[C@H]1COc2c(-c3nc(Nc4ccc(N5CCOCC5=O)cc4F)ncc3Cl)cc(F)c3nc(C(C)(C)O)n1c23` [Example 1, (S)-4-(4-((5-Chloro-4-(8-fluoro-2-(2-hydroxypropan-2-yl)-3-methyl-3,4-dihydro-5-oxa-1,2a-diazaacenaphthylen-6-yl)pyrimidin-2-yl)amino)-3-fluorophenyl)morpholin-3-one], the values for the IC50 (in assay [1]; on CDK4/CycD1; at CDK2/CycE1) were 80.3 nM, 3.8 nM and 9.8 nM, respectively.
